This note sets out measurements from patent US7563819B1, “Esters of 5-aminolevulinic acid as photosensitizing agents in photochemotherapy” (Photocure ASA, priority 2000, dated 2009).

One test concerns murine skin. The experiment in a line: Porphyrin formation (skin fluorescence) after topical application onto murine skin. Type of test: in vivo, Female Balb/c athymic nude mice. The conditions noted are these: topical cream on nude mouse skin, 1% (w/w), except compounds 16, 29, 30, 31 at 3% and 17-19 at 10%. As to the method:
The test compounds were formulated in Unguentum Merck (cream base available from Merck, consisting of silicon dioxide, paraffin liq., vaseline, album, cetostearol, polysorbat. 40, glycerol monostearate, Miglyol®812 (a mixture of plant fatty acids), polypropyleneglycol, and purified water) to the desired concentration. Concentrations are given as % (w/w) calculated as hydrochlorides. The formulations were prepared the day before the experiment commenced and stored in the refrigerator until the day of use.
Female Balb/c athymic nude mice, weighing about 22 g, obtained from the Department of Laboratory Animals, The Norwegian Radium Hospital (Montebello, Oslo, Norway) were used in the studies.
Three mice per group was used. Each mouse received 0.05-0.1 g of formulation topically applied at the right flank of the body, evenly distributed and covered with a dressing (Opsite Flexigrid; Smith and Nephew Medical Ltd., Hull, England). The fiber point measuring device consisted of a bundle of optical fibers connected to a spectrofluorimeter which produced the excitation light of 407 nm. The excitation light, which is able to penetrate 0.1-0.5 mm into the tissue, was led through half of the fibers to the mouse skin. The resulting emission fluorescence spectrum (550-750) nm was collected and led through the remaining fibers into a photomultiplier for quantification.
After application of the cream formulation, the fluorescence spectrum from porphyrins in the skin was measured by the fiber-optical method at different intervals of time after administration.
The fluorescence intensity varied from experiment to experiment. Therefore 1% (w/w) hexyl 5-aminolevulinate-HCl was included in each experiment as an internal control.

Another test concerns WiDr cells. The experiment in a line: Measurement of porphyrin formation in cell culture in vitro. Format: cell-based. To be noted: 4 h incubation; for POTENCY (Relative ability to induce porphyrin formation): 0.001-1 mM, relative to ALA = 1; for potency in inducing cellular porphyrin formation relative to ALA: fold versus ALA; for ALA concentration giving the same porphyrin formation as 0.001 mM ester: ester at 0.001 mM. As to the method:
The test compounds were dissolved in DMSO to a concentration of 100 mM (stock solution). Appropriate concentrations were obtained by dilution of the stock solutions with phosphate-buffered saline (PBS) or culture medium.
WiDr cells, derived form a primary adenocarcinoma of the rectosigmoid colon, were subcultured in RPMI 1640 medium (Gibco) containing 10% fetal calf serum, 100 U/ml penicillin, 100 μg/ml streptomycin and 1% glutamine. Cells were split 1:100 twice a week, and maintained at 37° C. and 5. % CO2 in a humid environment.
5×10^5 WiDr cells in 2 ml of RPMI medium as described in the previous paragraph were added to each well in 6-well plastic tissue-culture plates (Nunc) and left for 48 hr at 37° C. and 5% CO2 in a humid environment for proper attachment to the substratum. The cells were then washed twice with RPMI 1640-medium without serum, followed by the addition to the wells of the appropriate dilutions of the test compounds in 2 ml of fresh culture medium to final concentrations of 0.001, 0.01, 0.1 and 1 mM in duplicate. The cells were incubated at 37° C. for four hours.
After treatment as described in the paragraph “treatment conditions” the cells were washed twice with PBS and brought into a solution of 1M HClO4 in 50% MeOH by scraping the cells off the substratum by means of a Costar cell scraper. Cell debris was removed by centrifugation. The porphyrin content of each sample was determined fluorometrically using a Perkin Elmer LS50B spectrofluorimeter (excitation at 407 nm, emission was measured at 606 nm using a long pass cut-off filter (530 nm) on the emission side). The fluorescence in each sample was calculated relative to the protein content in control cells as measured by the Bradford method.

SMILES strings stand for the structures. Entries after “also recorded” stand apart in the source; their conditions may differ.

Take `Cl.Cl.NCC(=O)CCC(=O)OCc1cccnc1` [Compound 26, 3-Pyridinylmethyl 5-amino-4-Oxopentanoate Dihydrochloride]: the “skin fluorescence level after topical application” value (“skin fluorescence level” for short) in the test with murine skin is recorded as “intermediate fluorescence”.
As for `Cl.NCC(=O)CCC(=O)OCc1ccc(Cl)cc1` [Compound 19, 4-Chlorobenzyl 5-amino-4-oxopentanoate Hydrochloride], the “skin fluorescence level” value in the test on murine skin was “high fluorescence levels”.
Take `Cc1ccc(COC(=O)CCC(=O)CN)cc1.Cl` [Compound 3, 4-Methylbenzyl 5-amino-4-oxopentanoate Hydrochloride]: the “skin fluorescence level” value with murine skin is “high and similar levels of fluorescence”. For the same molecule, in the test on WiDr cells, the “POTENCY (Relative ability to induce porphyrin formation)” value is recorded as 200 and the “potency in inducing cellular porphyrin formation relative to ALA” value is listed as “approximately 200 times”.
For the molecule `Cl.NCC(=O)CCC(=O)OCc1ccc(F)cc1` [Compound 15, 4-Fluorobenzyl 5-amino-4-oxopentanoate Hydrochloride], the “skin fluorescence level” value with murine skin is recorded as “Slightly lower levels”.
As for `Cl.NCC(=O)CCC(=O)OCc1ccccc1` [Compound 4, Benzyl 5-amino-4-oxopentanoate hydrochloride], in the test on murine skin, the “skin fluorescence level” value is recorded as “high levels of fluorescence”. In the test with WiDr cells, the “efficiency in inducing cellular porphyrin synthesis compared with ALA” value is given as “considerably more efficient than ALA”, the “POTENCY (Relative ability to induce porphyrin formation)” value is 100-600 and the “ALA concentration giving the same porphyrin formation as 0.001 mM ester” value amounted to 0.6 mM.
As to `CC(C)c1ccc(COC(=O)CCC(=O)CN)cc1.Cl` [Compound 2, 4-Isopropylbenzyl 5-amino-4-oxopentanoate Hydrochloride], the “skin fluorescence level” value in the test with murine skin is given as “intermediate levels of fluorescence”. Moreover, in the test with WiDr cells, the “POTENCY (Relative ability to induce porphyrin formation)” value is 200 and the “potency in inducing cellular porphyrin formation relative to ALA” value is listed as “approximately 200 times”.
As for `Cl.NCC(=O)CCC(=O)OCc1c(F)c(F)c(F)c(F)c1F` [Compound 18, 2,3,4,5,6-Pentafluorobenzyl 5-amino-4-oxopentanoate Hydrochloride], the “skin fluorescence level” value with murine skin is “intermediate/high activities”.
Still for that read-out and setting: in the case of `CCCC(C)COC(=O)CCC(=O)CN.Cl` (stereo not shown) [Compound 13, 2-Methyl-1-pentyl 5-amino-4-oxopentanoate Hydrochloride] it was “gave porphyrin formation”; in that of `CC(=O)OC(C)OC(=O)NCC(=O)CCC(=O)OCc1ccccc1` (stereo not shown) [Compound 30, Benzyl 5-[[1-(acetyloxy)ethoxy]carbonyl]amino-4-oxopentanoate], “intermediate/high fluorescence”.
Turning to `Cl.NCC(=O)CCC(=O)OCc1ccc(C(F)(F)F)cc1` [Compound 9, 4-(Trifluoromethyl)benzyl 5-amino-4-oxopentanoate Hydrochloride], the “skin fluorescence level” value in the test on murine skin is on record as “high fluorescence levels”. In addition, in the test with WiDr cells, the “POTENCY (Relative ability to induce porphyrin formation)” value is 200 and the “potency in inducing cellular porphyrin formation relative to ALA” value is reported as “approximately 200 times”.
As for `Cl.NCC(=O)CCC(=O)OCCc1ccccc1` [Compound 5, 2-Phenylethyl 5-amino-4-oxopentanoate Hydrochloride], in the test with murine skin (Hydrochloride), the “skin fluorescence level” value is reported as “low levels of fluorescence”. For the same molecule, the “skin fluorescence level” value with murine skin (listed as 2-phenyl-ethyl 5-aminolevulinate, Hydrochloride) was “relatively modest fluorescence levels”. In addition, in the test on WiDr cells, the “efficiency in inducing cellular porphyrin synthesis compared with ALA” value is “considerably more efficient than ALA”, the “POTENCY (Relative ability to induce porphyrin formation)” value is on record as 500 and the “ALA concentration giving the same porphyrin formation as 0.001 mM ester” value came out at 0.4 mM.
Consider `CCCC(CC)OC(=O)CCC(=O)CN.Cl` (stereo not shown) [Compound 12, 3-Hexyl 5-amino-4-oxopentanoate Hydrochloride], for which, in the test with murine skin, the “skin fluorescence level” value is “gave porphyrin formation”.
Still for that read-out and setting: in the case of `Cl.NCC(=O)CCC(=O)OCCCCc1ccccc1` [Compound 14, 4-Phenyl-1-butyl 5-amino-4-oxopentanoate Hydrochloride] it was “only low fluorescence levels”.
With `Cl.NCC(=O)CCC(=O)OCc1ccc([N+](=O)[O-])cc1` [Compound 11, 4-Nitrobenzyl 5-amino-4-oxopentanoate Hydrochloride], the “skin fluorescence level” value in the test on murine skin is given as “high levels of fluorescence”. In the test with WiDr cells, the “POTENCY (Relative ability to induce porphyrin formation)” value is listed as 200 and the “potency in inducing cellular porphyrin formation relative to ALA” value was “approximately 200 times”.
The corresponding values for `CC(C)CCCOC(=O)CCC(=O)CN.Cl` [Compound 8, 4-Methyl-1-pentyl 5-amino-4-oxopentanoate Hydrochloride] are “high fluorescence levels”, 100 and “approximately 100 times”.
As to `Cl.NCC(=O)CCC(=O)OCc1ccccc1F` [Compound 17, 2-Fluorobenzyl 5-amino-4-oxopentanoate Hydrochloride], in the test on murine skin, the “skin fluorescence level” value was “intermediate/high activities”.
Consider `COc1ccc(COC(=O)CCC(=O)CN)cc1.Cl` [Compound 28, 4-Methoxybenzyl 5-amino-4-oxopentanoate Hydrochloride], for which the “skin fluorescence level” value with murine skin is “intermediate fluorescence”.
Regarding `CCCCC(C)OC(=O)CCC(=O)CN.Cl` (stereo not shown) [Compound 1, 1-methyl-pentyl 5-amino-4-oxopentanoate Hydrochloride], the “skin fluorescence level” value in the test on murine skin is recorded as “intermediate fluorescence levels”. The “POTENCY (Relative ability to induce porphyrin formation)” value in the test with WiDr cells came out at 3. Moreover, in the test with WiDr cells (at low concentrations), the “efficiency in inducing porphyrin formation compared with ALA” value is “only slightly better than ALA”.
As to `Cl.NCC(=O)CCC(=O)OC1CCCCC1` [Compound 7, Cyclohexyl 5-amino-4-oxopentanoate Hydrochloride], the “skin fluorescence level” value in the test on murine skin is listed as “low levels of fluorescence”. Also, the “POTENCY (Relative ability to induce porphyrin formation)” value in the test on WiDr cells is 1. For the same molecule, the “efficiency in inducing porphyrin formation compared with ALA” value in the test with WiDr cells (at higher concentrations) is “less effective than ALA”; in the test with WiDr cells (at low concentrations) it was “only slightly more efficient than ALA”.
On to `CCCCCCOC(=O)CCC(=O)CN.Cl` [Compound 6, hexyl 5-aminolevulinate-HCl, reference compound], for which, in the test with murine skin, the “skin fluorescence level” value is “highest fluorescence; also recorded: high and similar levels of fluorescence”. For the same molecule, in the test on WiDr cells, the “POTENCY (Relative ability to induce porphyrin formation)” value is recorded as 100 and the “potency in inducing cellular porphyrin formation relative to ALA” value was “approximately 100 times”.
Turning to `CC(C)(C)c1ccc(COC(=O)CCC(=O)CN)cc1.Cl` [Compound 10, 4-t-Butylbenzyl 5-amino-4-oxopentanoate Hydrochloride], the “skin fluorescence level” value with murine skin is “Intermediate fluorescence levels”. Also, in the test on WiDr cells, the “POTENCY (Relative ability to induce porphyrin formation)” value was determined as 200 and the “potency in inducing cellular porphyrin formation relative to ALA” value is “approximately 200 times”.
In the case of `NCC(=O)CCC(=O)O` [ALA, 5-aminolevulinic acid], the “POTENCY (Relative ability to induce porphyrin formation)” value in the test with WiDr cells worked out at 1.
Regarding `Cl.NCC(=O)CCC(=O)OCc1ccc(-c2ccccc2)cc1` [Compound 27, 4-Diphenylmethyl 5-amino-4-oxopentanoate Hydrochloride], the “skin fluorescence level” value with murine skin was “relatively low fluorescence”.
